Assay [1] relates to A375P cells. Description: Inhibition activity against proliferation of A375P melanoma cells (MTT assay). The conditions noted are these: Homo sapiens, read-out: Inhibition activity against proliferation of A375P cells (GI50, μM). For orientation: Tetrazolium dyes change colour on reduction, which living cells bring about.
The subject of assay [2] is SK-MEL28 cells. Description: Inhibition activity against proliferation of SK-MEL28 melanoma cells (MTT assay). Conditions: Homo sapiens, SK-MEL-28, read-out: Inhibition activity against proliferation of SK-MEL28 cells (GI50, μM).

Bounds are passed on as bounds.

Among the data in patent US8765749B2, “1,6-disubstituted indole compounds as protein kinase inhibitors” (Korea Institute of Science and Technology, priority 2009, dated 2014) are GI50 values, retold here.

For the compound `Nc1cc(-n2ccc3ccc(-c4cccc(NC(=O)Nc5ccc(C(F)(F)F)c(Cl)c5)c4)cc32)ncn1` [Example 2, 1-(3-(1-(6-aminopyrimidin-4-yl)-1H-indol-6-yl)phenyl)-3-(3-chloro-4-(trifluoromethyl)phenyl)urea], the GI50 in assay [1] and in assay [2] was less than 10 µM each time.
For `Nc1cc(-n2ccc3ccc(-c4cccc(NC(=O)Nc5ccccc5F)c4)cc32)ncn1` [Example 3, 1-(3-(1-(6-aminopyrimidin-4-yl)-1H-indol-6-yl)phenyl)-3-(2-fluorophenyl)urea], the GI50 in assay [1] was less than 10 µM.
`Nc1cc(-n2ccc3ccc(-c4cccc(NC(=O)Nc5ccc(Cl)c(Cl)c5)c4)cc32)ncn1` [Example 4, 1-(3-(1-(6-aminopyrimidin-4-yl)-1H-indol-6-yl)phenyl)-3-(3,4-dichlorophenyl)urea]: in assay [1], the GI50 is less than 10 µM.
On to `Nc1cc(-n2ccc3ccc(-c4cccc(NC(=O)NC5CCCCC5)c4)cc32)ncn1` [Example 5, 1-(3-(1-(6-aminopyrimidin-4-yl)-1H-indol-6-yl)phenyl)-3-cyclohexylurea], for which the GI50 in assay [1] and in assay [2] was less than 10 µM in each case.
`Nc1cc(-n2ccc3ccc(-c4cccc(NC(=O)c5ccc(Cl)c(C(F)(F)F)c5)c4)cc32)ncn1` [Example 6, N-(3-(1-(6-aminopyrimidin-4-yl)-1H-indol-6-yl)phenyl)-4-chloro-3-(trifluoromethyl)benzamide]: the GI50 in assay [1] and in assay [2] was less than 10 µM throughout.
For the compound `Nc1cc(-n2ccc3ccc(-c4cccc(NC(=O)c5cc(N6CCOCC6)cc(C(F)(F)F)c5)c4)cc32)ncn1` [Example 7, N-(3-(1-(6-aminopyrimidin-4-yl)-1H-indol-6-yl)phenyl)-3-morpholino-5-(trifluoromethyl)benzamide], the GI50 in assay [1] and in assay [2] was less than 10 µM throughout.
In the case of `Cc1cn(-c2cc(C(=O)Nc3cccc(-c4ccc5ccn(-c6cc(N)ncn6)c5c4)c3)cc(C(F)(F)F)c2)cn1` [Example 8, N-(3-(1-(6-aminopyrimidin-4-yl)-1H-indol-6-yl)phenyl)-3-(4-methyl-1H-imidazol-1-yl)-5-(trifluoromethyl)benzamide], the GI50 in assay [1] and in assay [2] was less than 10 µM each time.
`CC(C)(C#N)c1cccc(C(=O)Nc2cccc(-c3ccc4ccn(-c5cc(N)ncn5)c4c3)c2)c1` [Example 9, N-(3-(1-(6-aminopyrimidin-4-yl)-1H-indol-6-yl)phenyl)-3-(2-cyanopropan-2-yl)benzamide]: the GI50 in assay [1] and in assay [2] was less than 10 µM each time.
Take `COc1ccc(-c2ccc(C(=O)Nc3cccc(-c4ccc5ccn(-c6cc(N)ncn6)c5c4)c3)o2)cc1` [Example 10, N-(3-(1-(6-aminopyrimidin-4-yl)-1H-indol-6-yl)phenyl)-5-(4-methoxyphenyl)furan-2-carboxamide]: the GI50 in assay [1] was less than 10 µM.
Turning to `Nc1cc(-n2ccc3ccc(-c4cccc(NC(=O)c5ccc(-c6cc(C(F)(F)F)ccc6Cl)o5)c4)cc32)ncn1` [Example 11], the GI50 in assay [1] is less than 10 µM.
`Cc1cc(C(=O)Nc2cccc(-c3ccc4ccn(-c5cc(N)ncn5)c4c3)c2)c(C)o1` [Example 12, N-(3-(1-(6-aminopyrimidin-4-yl)-1H-indol-6-yl)phenyl)-2,5-dimethylfuran-3-carboxamide]: in assay [1], the GI50 was less than 10 µM.
Take `Cc1cc(C(=O)Nc2cccc(-c3ccc4ccn(-c5cc(N)ncn5)c4c3)c2)no1` [Example 13, N-(3-(1-(6-aminopyrimidin-4-yl)-1H-indol-6-yl)phenyl)-5-methylisoxazol-3-carboxamide]: the GI50 in assay [1] and in assay [2] was less than 10 µM throughout.
With `Nc1cc(-n2ccc3ccc(-c4cccc(NC(=O)c5cc(-c6ccc(Cl)cc6)on5)c4)cc32)ncn1` [Example 14, N-(3-(1-(6-aminopyrimidin-4-yl)-1H-indol-6-yl)phenyl)-5-(4-chlorophenyl)isoxazol-3-carboxamide], in assay [1], the GI50 is less than 10 µM.
Take `Nc1cc(-n2ccc3ccc(-c4cccc(NC(=O)c5cscn5)c4)cc32)ncn1` [Example 15, N-(3-(1-(6-aminopyrimidin-4-yl)-1H-indol-6-yl)phenyl)thiazol-4-carboxamide]: the GI50 in assay [1] was less than 10 µM.
The same measure, in the same setting: the result for `Nc1cc(-n2ccc3ccc(-c4cccc(NC(=O)c5csc(-c6ccncc6)n5)c4)cc32)ncn1` [Example 16, N-(3-(1-(6-aminopyrimidin-4-yl)-1H-indol-6-yl)phenyl)-2-(pyridin-4-yl)thiazol-4-carboxamide] reads less than 10 µM; that for `Nc1cc(-n2ccc3ccc(-c4cccc(NC(=O)c5cnn(-c6ccccc6)c5C(F)(F)F)c4)cc32)ncn1` [Example 17, N-(3-(1-(6-aminopyrimidin-4-yl)-1H-indol-6-yl)phenyl)-1-phenyl-5-(trifluoromethyl)-1H-pyrazol-4-carboxamide], less than 10 µM.
Regarding `Nc1cc(-n2ccc3ccc(-c4cccc(NC(=O)c5ccc(Br)s5)c4)cc32)ncn1` [Example 18, N-(3-(1-(6-aminopyrimidin-4-yl)-1H-indol-6-yl)phenyl)-5-bromothiophen-2-carboxamide], in assay [1], the GI50 is less than 10 µM.
For the compound `CN1CCC(Oc2ccc(C(=O)Nc3cccc(-c4ccc5ccn(-c6cc(N)ncn6)c5c4)c3)cc2C(F)(F)F)CC1` [Example 19, N-(3-(1-(6-aminopyrimidin-4-yl)-1H-indol-6-yl)phenyl)-4-(1-methylpiperidin-4-yloxy)-3-(trifluoromethyl)benzamide], in assay [1], the GI50 was less than 10 µM.
On to `Cc1ccc(S(=O)(=O)Nc2cccc(-c3ccc4ccn(-c5cc(N)ncn5)c4c3)c2)cc1` [Example 20, N-(3-(1-(6-aminopyrimidin-4-yl)-1H-indol-6-yl)phenyl)-4-methylbenzenesulfonamide], for which the GI50 in assay [1] was less than 10 µM.
Turning to `COc1ccccc1NC(=O)Nc1cccc(-c2ccc3ccn(-c4cc(NC5CC5)ncn4)c3c2)c1` [Example 23, 1-(3-(1-(6-(cyclopropylamino)pyrimidin-4-yl)-1H-indol-6-yl)phenyl)-3-(2-methoxyphenyl)urea], the GI50 in assay [1] and in assay [2] was less than 10 µM throughout.
Take `COc1ccccc1NC(=O)Nc1cccc(-c2ccc3ccn(-c4cc(NCCN5CCOCC5)ncn4)c3c2)c1` [Example 24, 1-(2-methoxyphenyl)-3-(3-(1-(6-(2-morpholinoethylamino)pyrimidin-4-yl)-1H-indol-6-yl)phenyl)urea]: the GI50 in assay [1] and in assay [2] was less than 10 µM throughout.
In the case of `COc1ccccc1NC(=O)Nc1cccc(-c2ccc3ccn(-c4ccnc(N)n4)c3c2)c1` [Example 25, 1-(3-(1-(2-aminopyrimidin-4-yl)-1H-indol-6-yl)phenyl)-3-(2-methoxyphenyl)urea], the GI50 in assay [1] and in assay [2] was less than 10 µM throughout.
In the case of `O=C(Nc1cccc(-c2ccc3ccn(-c4cc(NC(=O)C5CC5)ncn4)c3c2)c1)Nc1ccccc1F` [Example 27, N-(6-(6-(3-(3-(2-fluorophenyl)ureido)phenyl)-1H-indol-1-yl)pyrimidin-4-yl)cyclopropanecarboxamide], the GI50 in assay [1] is less than 10 µM.
In the case of `O=C(Nc1cccc(-c2ccc3ccn(-c4cc(NC(=O)C5CC5)ncn4)c3c2)c1)Nc1ccc(Cl)c(Cl)c1` [Example 28, N-(6-(6-(3-(3-(3,4-dichlorophenyl)ureido)phenyl)-1H-indol-1-yl)pyrimidin-4-yl)cyclopropanecarboxamide], the GI50 in assay [1] is less than 10 µM.
For `O=C(Nc1cccc(-c2ccc3ccn(-c4cc(NC(=O)C5CC5)ncn4)c3c2)c1)NC1CCCCC1` [Example 29, N-(6-(6-(3-(3-cyclohexylureido)phenyl)-1H-indol-1-yl)pyrimidin-4-yl)cyclopropanecarboxamide], the GI50 in assay [1] is less than 10 µM.
In the case of `O=C(Nc1cccc(-c2ccc3ccn(-c4cc(NC(=O)C5CC5)ncn4)c3c2)c1)c1ccc(Cl)c(C(F)(F)F)c1` [Example 30, 4-chloro-N-(3-(1-(6-(cyclopropanecarboxamido)pyrimidin-4-yl)-1H-indol-6-yl)phenyl)-3-(trifluoromethyl)benzamide], the GI50 in assay [1] is less than 10 µM.
Same read-out and setting: the result for `O=C(Nc1cccc(-c2ccc3ccn(-c4cc(NC(=O)C5CC5)ncn4)c3c2)c1)c1cc(N2CCOCC2)cc(C(F)(F)F)c1` [Example 31, N-(3-(1-(6-(cyclopropanecarboxamido)pyrimidin-4-yl)-1H-indol-6-yl)phenyl)-3-morpholino-5-(trifluoromethyl)benzamide] reads less than 10 µM; that for `Cc1cn(-c2cc(C(=O)Nc3cccc(-c4ccc5ccn(-c6cc(NC(=O)C7CC7)ncn6)c5c4)c3)cc(C(F)(F)F)c2)cn1` [Example 32, N-(3-(1-(6-(cyclopropanecarboxamido)pyrimidin-4-yl)-1H-indol-6-yl)phenyl)-3-(4-methyl-1H-imidazol-1-yl)-5-(trifluoromethyl)benzamide], less than 10 µM; that for `CC(C)(C#N)c1cccc(C(=O)Nc2cccc(-c3ccc4ccn(-c5cc(NC(=O)C6CC6)ncn5)c4c3)c2)c1` [Example 33, 3-(2-cyanopropan-2-yl)-N-(3-(1-(6-(cyclopropanecarboxamido)pyrimidin-4-yl)-1H-indol-6-yl)phenyl)benzamide], less than 10 µM.
For `COc1ccccc1NC(=O)Nc1ccc(C)c(-c2ccc3ccn(-c4cc(NC(=O)C5CC5)ncn4)c3c2)c1` [Example 35, N-(6-(6-(5-(3-(2-methoxyphenyl)ureido)-2-methylphenyl)-1H-indol-1-yl)pyrimidin-4-yl)cyclopropanecarboxamide], in assay [1], the GI50 is less than 10 µM.
`COc1ccccc1NC(=O)Nc1cccc(-c2ccc3ccn(-c4ncnc5[nH]ccc45)c3c2)c1` [Example 36, 1-(3-(1-(7H-pyrrolo[2,3-d]pyrimidin-4-yl)-1H-indol-6-yl)phenyl)-3-(2-methoxyphenyl)urea]: the GI50 in assay [1] and in assay [2] was less than 10 µM throughout.
Regarding `O=C(Nc1cccc(-c2ccc3ccn(-c4ncnc5[nH]ccc45)c3c2)c1)c1ccc(Cl)c(C(F)(F)F)c1` [Example 37, N-(3-(1-(7H-pyrrolo[2,3-d]pyrimidin-4-yl)-1H-indol-6-yl)phenyl)-4-chloro-3-(trifluoromethyl)benzamide], the GI50 in assay [1] was less than 10 µM.
